ChEMBL document CHEMBL1275550, “In vitro activity of doripenem, a carbapenem for the treatment of challenging infections caused by gram-negative bacteria, against recent clinical isolates from the United States” (2008)
Values after ≈ are worked out from the molar mass of the structure shown.

Assays:
Enterobacter cloacae [1] = test: Antimicrobial activity against Enterobacter cloacae assessed as susceptible isolate by broth microdilution method; format: functional
Enterobacteriaceae [2] = test: Antimicrobial activity against ceftazidime-susceptible Enterobacteriaceae assessed as resistant isolate by broth microdilution method; format: functional
Streptococcus pneumoniae = test: Antimicrobial activity against penicillin-susceptible Streptococcus pneumoniae by broth microdilution method; format: functional; conditions: Streptococcus pneumoniae
Enterobacteriaceae [3] = test: Antimicrobial activity against ceftazidime-susceptible Enterobacteriaceae assessed as intermediate isolate by broth microdilution method; format: functional
Pseudomonas aeruginosa [4] = test: Antimicrobial activity against Pseudomonas aeruginosa isolated from non-ICU patient assessed as resistant isolate by broth microdilution method
Acinetobacter [5] = test: Antimicrobial activity against imipenem susceptible Acinetobacter by broth microdilution method; format: functional
Proteus mirabilis [6] = test: Antimicrobial activity against ESBL producing Proteus mirabilis assessed as intermediate isolate by broth microdilution method; format: functional
Pseudomonas aeruginosa [7] = test: Antimicrobial activity against Pseudomonas aeruginosa isolated from ICU patient assessed as intermediate isolate by broth microdilution method
Escherichia coli [8] = test: Antimicrobial activity against ESBL producing Escherichia coli assessed as intermediate isolate by broth microdilution method; format: functional
Citrobacter [9] = test: Antimicrobial activity against Citrobacter assessed as susceptible isolate by broth microdilution method; format: functional
Citrobacter [10] = test: Antimicrobial activity against Citrobacter by broth microdilution method; format: functional
Serratia marcescens [11] = test: Antimicrobial activity against Ceftazidime non-susceptible Serratia marcescens assessed as intermediate isolate by broth microdilution method; format: functional
Citrobacter [12] = test: Antimicrobial activity against Citrobacter with nonderepressed AmpC beta-lactamsae assessed as susceptible isolate by broth microdilution method; format: functional
Enterobacter cloacae [13] = test: Antimicrobial activity against Enterobacter cloacae with nonderepressed AmpC beta-lactamsae assessed as intermediate isolate by broth microdilution method; format: functional
Enterobacter cloacae [14] = test: Antimicrobial activity against Enterobacter cloacae with derepressed AmpC beta-lactamsae assessed as susceptible isolate by broth microdilution method; format: functional
Enterobacteriaceae [15] = test: Antimicrobial activity against Ceftazidime non-susceptible Enterobacteriaceae assessed as susceptible isolate by broth microdilution method; format: functional
Pseudomonas aeruginosa [16] = test: Antimicrobial activity against imipenem non-susceptible Pseudomonas aeruginosa by broth microdilution method; format: functional
Escherichia coli [17] = test: Antimicrobial activity against ESBL producing Escherichia coli by broth microdilution method; format: functional
Enterobacter cloacae [18] = test: Antimicrobial activity against Enterobacter cloacae with derepressed AmpC beta-lactamsae by broth microdilution method; format: functional
Klebsiella pneumoniae [19] = test: Antimicrobial activity against ESBL producing Klebsiella pneumoniae assessed as susceptible isolate by broth microdilution method; format: functional
Enterobacter cloacae [20] = test: Antimicrobial activity against Enterobacter cloacae with nonderepressed AmpC beta-lactamsae assessed as susceptible isolate by broth microdilution method; format: functional
Enterobacter cloacae [21] = test: Antimicrobial activity against Enterobacter cloacae with derepressed AmpC beta-lactamsae assessed as intermediate isolate by broth microdilution method; format: functional
Proteus mirabilis [22] = test: Antimicrobial activity against Proteus mirabilis by broth microdilution method; format: functional
Enterobacteriaceae [23] = test: Antimicrobial activity against ceftazidime-susceptible Enterobacteriaceae by broth microdilution method; format: functional
Pseudomonas aeruginosa [24] = test: Antimicrobial activity against Pseudomonas aeruginosa isolated from non-ICU patient by broth microdilution method
Escherichia coli [25] = test: Antimicrobial activity against Non-ESBL Escherichia coli assessed as intermediate isolate by broth microdilution method; format: functional
Pseudomonas aeruginosa [26] = test: Antimicrobial activity against Pseudomonas aeruginosa isolated from ICU patient assessed as resistant isolate by broth microdilution method
Enterobacteriaceae [27] = test: Antimicrobial activity against Enterobacteriaceae assessed as susceptible isolate by broth microdilution method; format: functional
Proteus mirabilis [28] = test: Antimicrobial activity against Non-ESBL Proteus mirabilis assessed as intermediate isolate by broth microdilution method; format: functional
Proteus mirabilis [29] = test: Antimicrobial activity against Non-ESBL Proteus mirabilis assessed as susceptible isolate by broth microdilution method; format: functional
Pseudomonas aeruginosa [30] = test: Antimicrobial activity against Pseudomonas aeruginosa isolated from ICU patient by broth microdilution method; format: functional
Acinetobacter [31] = test: Antimicrobial activity against imipenem non-susceptible Acinetobacter by broth microdilution method; format: functional
Klebsiella pneumoniae [32] = test: Antimicrobial activity against Klebsiella pneumoniae by broth microdilution method; format: functional
Acinetobacter [33] = test: Antimicrobial activity against imipenem non-susceptible Acinetobacter assessed as intermediate isolate by broth microdilution method; format: functional
Serratia marcescens [34] = test: Antimicrobial activity against Serratia marcescens by broth microdilution method; format: functional
Pseudomonas aeruginosa [35] = test: Antimicrobial activity against Ceftazidime susceptible Pseudomonas aeruginosa assessed as susceptible isolate by broth microdilution method; format: functional
Pseudomonas aeruginosa [36] = test: Antimicrobial activity against Ceftazidime non-susceptible Pseudomonas aeruginosa assessed as susceptible isolate by broth microdilution method; format: functional
Acinetobacter [37] = test: Antimicrobial activity against imipenem non-susceptible Acinetobacter assessed as resistant isolate by broth microdilution method; format: functional
Enterobacter cloacae [38] = test: Antimicrobial activity against Enterobacter cloacae by broth microdilution method; format: functional
Pseudomonas aeruginosa [39] = test: Antimicrobial activity against Ceftazidime non-susceptible Pseudomonas aeruginosa assessed as intermediate isolate by broth microdilution method; format: functional
Pseudomonas aeruginosa [40] = test: Antimicrobial activity against Pseudomonas aeruginosa isolated from ICU patient assessed as susceptible isolate by broth microdilution method
Klebsiella pneumoniae [41] = test: Antimicrobial activity against ESBL producing Klebsiella pneumoniae assessed as intermediate isolate by broth microdilution method; format: functional
Staphylococcus aureus = test: Antimicrobial activity against methicillin-susceptible Staphylococcus aureus by broth microdilution method; format: functional; conditions: Staphylococcus aureus
Acinetobacter [42] = test: Antimicrobial activity against Acinetobacter by broth microdilution method; format: functional
Staphylococcus = test: Antimicrobial activity against methicillin-susceptible coagulase-negative Staphylococcus by broth microdilution method; format: functional; conditions: Staphylococcus
Pseudomonas aeruginosa [43] = test: Antimicrobial activity against Pseudomonas aeruginosa isolated from non-ICU patient by broth microdilution method; format: functional
Citrobacter [44] = test: Antimicrobial activity against Citrobacter with derepressed AmpC beta-lactamsae assessed as susceptible isolate by broth microdilution method; format: functional
Proteus mirabilis [45] = test: Antimicrobial activity against ESBL producing Proteus mirabilis by broth microdilution method; format: functional
Enterobacteriaceae [46] = test: Antimicrobial activity against Enterobacteriaceae by broth microdilution method; format: functional
Pseudomonas aeruginosa [47] = test: Antimicrobial activity against imipenem non-susceptible Pseudomonas aeruginosa assessed as susceptible isolate by broth microdilution method; format: functional
Pseudomonas aeruginosa [48] = test: Antimicrobial activity against imipenem susceptible Pseudomonas aeruginosa assessed as susceptible isolate by broth microdilution method; format: functional

Compound `C[C@@H](O)[C@H]1C(=O)N2C(C(=O)O)=C(SCCNC=N)C[C@H]12` [IMIPENEM ANHYDROUS] has an Activity (Enterobacter cloacae [1]) of 99.6%, an Activity (Enterobacteriaceae [2]) of 0.1% and an MIC50 (Streptococcus pneumoniae) of at most 0.015 µg/mL. For the same compound, the MIC90 (Streptococcus pneumoniae; read-out: MIC90) was at most 0.015 µg/mL, the Activity (Enterobacteriaceae [3]) was 0.3% and the Activity (Pseudomonas aeruginosa [4]) was 17.2%. The MIC50 (Acinetobacter [5]) was 0.5 µg/mL (≈ 1.67 µM), the MIC90 (Acinetobacter [5]) was 4 µg/mL (≈ 13.4 µM) and the Activity (Proteus mirabilis [6]) was 0%. It also gave an Activity (Pseudomonas aeruginosa [7]) of 5.8%, an Activity (Escherichia coli [8]) of 0% and an Activity (Citrobacter [9]) of 99.8%. It also gave an MIC50 (Citrobacter [10]) of 1 µg/mL (≈ 3.34 µM), an MIC90 (Citrobacter [10]) of 2 µg/mL (≈ 6.68 µM) and an Activity (Serratia marcescens [11]) of 0%. The Activity (Citrobacter [12]) was 99.8%, the Activity (Enterobacter cloacae [13]) was 0.5% and the Activity (Enterobacter cloacae [14]) was 100%. It also gave an Activity (Enterobacteriaceae [15]) of 97.3%, an MIC50 (Pseudomonas aeruginosa [16]) of 16 µg/mL (≈ 53.4 µM) and an MIC90 (Pseudomonas aeruginosa [16]) of over 32 µg/mL. It also gave an MIC50 (Escherichia coli [17]) of 0.5 µg/mL (≈ 1.67 µM), an MIC90 (Escherichia coli [17]) of 1 µg/mL (≈ 3.34 µM) and an MIC50 (Enterobacter cloacae [18]) of 1 µg/mL (≈ 3.34 µM). For the same compound, the MIC90 (Enterobacter cloacae [18]) was 2 µg/mL (≈ 6.68 µM), the Activity (Klebsiella pneumoniae [19]) was 95.5% and the Activity (Enterobacter cloacae [20]) was 99.5%. It also gave an Activity (Enterobacter cloacae [21]) of 0%, an MIC50 (Proteus mirabilis [22]) of 2 µg/mL (≈ 6.68 µM) and an MIC90 (Proteus mirabilis [22]) of 4 µg/mL (≈ 13.4 µM). The MIC50 (Enterobacteriaceae [23]) was 0.5 µg/mL (≈ 1.67 µM), the MIC90 (Enterobacteriaceae [23]) was 2 µg/mL (≈ 6.68 µM) and the Activity (Pseudomonas aeruginosa [24]) was 74.9%. It also gave an Activity (Escherichia coli [25]) of 0%, an Activity (Pseudomonas aeruginosa [26]) of 26.6% and an Activity (Enterobacteriaceae [27]) of 99.4%. The Activity (Proteus mirabilis [28]) was 2.5%, the Activity (Proteus mirabilis [29]) was 97.3% and the MIC50 (Pseudomonas aeruginosa [30]) was 4 µg/mL (≈ 13.4 µM). It also gave an MIC90 (Pseudomonas aeruginosa [30]) of 32 µg/mL (≈ 107 µM), an MIC50 (Acinetobacter [31]) of over 32 µg/mL and an MIC90 (Acinetobacter [31]) of over 32 µg/mL. For the same compound, the MIC50 (Klebsiella pneumoniae [32]) was 0.5 µg/mL (≈ 1.67 µM), the MIC90 (Klebsiella pneumoniae [32]) was 1 µg/mL (≈ 3.34 µM) and the Activity (Acinetobacter [33]) was 3.9%. For the same compound, the MIC50 (Serratia marcescens [34]) was 2 µg/mL (≈ 6.68 µM), the MIC90 (Serratia marcescens [34]) was 4 µg/mL (≈ 13.4 µM) and the Activity (Pseudomonas aeruginosa [35]) was 79.3%. For the same compound, the Activity (Pseudomonas aeruginosa [36]) was 55.5%, the Activity (Acinetobacter [37]) was 96.1% and the MIC50 (Enterobacter cloacae [38]) was 1 µg/mL (≈ 3.34 µM). It also gave an MIC90 (Enterobacter cloacae [38]) of 2 µg/mL (≈ 6.68 µM), an Activity (Pseudomonas aeruginosa [39]) of 8.2% and an Activity (Pseudomonas aeruginosa [40]) of 67.6%. For the same compound, the Activity (Klebsiella pneumoniae [41]) was 2.3%, the MIC50 (Staphylococcus aureus; read-out: MIC50) was 0.03 µg/mL (≈ 0.1 µM) and the MIC90 (Staphylococcus aureus; read-out: MIC90) was 0.03 µg/mL (≈ 0.1 µM). For the same compound, the MIC50 (Acinetobacter [42]) was 1 µg/mL (≈ 3.34 µM), the MIC90 (Acinetobacter [42]) was over 32 µg/mL and the MIC50 (Staphylococcus; read-out: MIC50) was at most 0.015 µg/mL. For the same compound, the MIC90 (Staphylococcus; read-out: MIC90) was 0.03 µg/mL (≈ 0.1 µM), the MIC50 (Pseudomonas aeruginosa [43]) was 4 µg/mL (≈ 13.4 µM) and the MIC90 (Pseudomonas aeruginosa [43]) was 32 µg/mL (≈ 107 µM). The Activity (Citrobacter [44]) was 100%, the MIC (Proteus mirabilis [45]) was 0.5 µg/mL (≈ 1.67 µM) and the MIC50 (Enterobacteriaceae [46]) was 0.5 µg/mL (≈ 1.67 µM). For the same compound, the MIC90 (Enterobacteriaceae [46]) was 2 µg/mL (≈ 6.68 µM), the Activity (Pseudomonas aeruginosa [47]) was 0% and the Activity (Pseudomonas aeruginosa [48]) was 100%.
